Experimental data taken from patent US11807693B2 (priority 2014, dated 2023).
Read-outs that look alike come from different tables or passages of the source. Starred links: 1 amine or outer side, 2 acyl side, 3 side chain; linkers in the order of their positions; H or OH if unused. Non-standard residues stand in square brackets, D forms with d. Residues, ends and D or L forms follow the SMILES beside them. ξ: configuration not given here. *: point of attachment. dBip = N[C@H](Cc1ccc(-c2ccccc2)cc1)C(=O)O; Oic = O=C(O)[C@@H]1C[C@@H]2CCCC[C@@H]2N1; Phe(4-Cl) = N[C@@H](Cc1ccc(Cl)cc1)C(=O)O; Phe(4-I) = N[C@@H](Cc1ccc(I)cc1)C(=O)O; γGlu = O=C(O)[C@H](CCC(=O)[*:2])N[*:1]; d(β3hF) = N[C@@H](CC(=O)O)Cc1ccccc1; NMeR = CN[C@@H](CCCNC(=N)N)C(=O)O; Palmitoyl = CCCCCCCCCCCCCCCC(=O)*; Tridecanoyl = CCCCCCCCCCCCC(=O)*; hArg = N=C(N)NCCCC[C@H](N)C(=O)O; Cha = N[C@@H](CC1CCCCC1)C(=O)O; NMeL = CN[C@@H](CC(C)C)C(=O)O; αMeL = CC(C)C[C@](C)(N)C(=O)O; β3hS = N[C@@H](CO)CC(=O)O; Ac6c = NC1(C(=O)O)CCCCC1; Nle = CCCC[C@H](N)C(=O)O; ξβ3hV = CC(C)C(N)CC(=O)O; AEEA = NCCOCCOCC(=O)O; Aib = CC(C)(N)C(=O)O

What was measured:
[1] = In vitro stability in rat kidney homogenate; assay type: in vitro ADME; settings: rat, tissue homogenate
Summary of the method: (§1)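 High resolution LC-MS of the supernatant gave remaining peptide. Samples came from 37° C. incubations of 5 μM apelin peptide in rat plasma or liver or kidney homogenate over 4 hr, stopped with methanol plus internal standard.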

rat APJ receptor = molecular target: T1, rat APJ receptor (Rattus norvegicus, UniProt Q9JHG3); test: [35S] GTPγS assay, rat APJ receptor; assay type: biochemical
T1 construct: expressed in transfected cells
T1 sequence (Q9JHG3 1-377): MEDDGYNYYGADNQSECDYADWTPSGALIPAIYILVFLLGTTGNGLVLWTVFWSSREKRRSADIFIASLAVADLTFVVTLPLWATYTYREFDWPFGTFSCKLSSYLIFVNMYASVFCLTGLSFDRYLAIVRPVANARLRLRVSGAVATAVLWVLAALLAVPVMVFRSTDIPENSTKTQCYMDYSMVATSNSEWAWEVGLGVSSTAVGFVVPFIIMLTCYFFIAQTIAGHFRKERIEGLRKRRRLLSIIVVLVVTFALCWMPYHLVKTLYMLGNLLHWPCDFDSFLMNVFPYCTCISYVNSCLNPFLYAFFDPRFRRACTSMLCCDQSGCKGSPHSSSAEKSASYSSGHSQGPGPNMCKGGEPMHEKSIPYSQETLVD
Description: The membranes were incubated with modified peptides in the assay buffer. […] Bound [^35S] GTPγS was separated from free radiolabel by filtration. The filter bound radioactivity was determined by liquid scintillation counting.

[2] = In vitro stability in rat plasma; assay type: in vitro ADME
Summary of the method: as §1

[3] = In vitro stability in rat liver homogenate; assay type: in vitro ADME; settings: tissue homogenate
Summary of the method: as §1

[4] = Table 16, read-out: EC50 Rat APJ Receptor
[5] = rat APJ receptor, read-out: EC50 Rat APJ Receptor

| Compound | remaining at 4 h, 5 μM [1] | EC50 (rat APJ receptor; [4]) | remaining at 4 h, 5 μM [2] | remaining at 4 h, 5 μM [3] | EC50 (rat APJ receptor; [5]) |
| --- | --- | --- | --- | --- | --- |
| CCCCCCCCCCCCC(=O)N[C@@H](CCC(=O)NCCOCCOCC(=O)NCCOCCOCC(=O)N[C@@H](CCC(N)=O)C(=O)N[C@@H](CCCNC(=N)N)C(=O)N1CCC[C@H]1C(=O)N[C@@H](CCCCNC(=N)N)C(=O)N[C@@H](CC1CCCCC1)C(=O)N[C@@H](CO)C(=O)N[C@@H](Cc1c[nH]cn1)C(=O)N[C@@H](CCCCN)C(=O)NCC(=O)N1[C@H](C(=O)N[C@@H](CCCC)C(=O)N2CCC[C@H]2C(=O)N[C@@H](Cc2ccc(Cl)cc2)C(=O)O)C[C@@H]2CCCC[C@@H]21)C(=O)O [compound 308] ({Tridecanoyl-γGlu-AEEA-AEEA}-QRP[hArg][Cha]SHKG[Oic][Nle]P[Phe(4-Cl)]-OH) | < 1% | 0.18 nM | 76% | 6.2% |  |
| CCCCCCCCCCCCC(=O)N[C@@H](CCC(=O)NCCOCCOCC(=O)NCCOCCOCC(=O)N[C@@H](CCCCNC(=N)N)C(=O)N[C@@H](CCC(N)=O)C(=O)N[C@@H](CCCCNC(=N)N)C(=O)N1CCC[C@H]1C(=O)N(C)[C@@H](CCCNC(=N)N)C(=O)N[C@@H](CC1CCCCC1)C(=O)N[C@@H](CO)C(=O)N[C@@H](Cc1c[nH]cn1)C(=O)N[C@@H](CCCCN)C(=O)NCC(=O)N1[C@H](C(=O)N[C@@H](CCCC)C(=O)N2CCC[C@H]2C(=O)N[C@@H](Cc2ccc(Cl)cc2)C(=O)O)C[C@@H]2CCCC[C@@H]21)C(=O)O [compound 310] ({Tridecanoyl-γGlu-AEEA-AEEA}-[hArg]Q[hArg]P[NMeR][Cha]SHKG[Oic][Nle]P[Phe(4-Cl)]-OH) | 1% |  | > 90% | 15% | 0.364 nM |
| CC(=O)N[C@@H](CCCCNC(=N)N)C(=O)N[C@H](CCCNC(=N)N)C(=O)N[C@@H](CCC(N)=O)C(=O)N[C@@H](CCCCNC(=N)N)C(=O)N1CCC[C@H]1C(=O)N[C@@H](CCC(=O)O)C(=O)N(C)[C@@H](CC(C)C)C(=O)N[C@@H](CO)C(=O)N[C@@H](Cc1c[nH]cn1)C(=O)N[C@@H](CCCCN)C(=O)NCC(=O)N1[C@H](C(=O)N[C@@H](Cc2ccc(I)cc2)C(=O)N2CCC[C@H]2C(=O)N[C@H](Cc2ccc(-c3ccccc3)cc2)C(=O)O)C[C@@H]2CCCC[C@@H]21 [compound 79] (Ac-[hArg][dR]Q[hArg]PE[NMeL]SHKG[Oic][Phe(4-I)]P[dBip]-OH) | 1.3% |  | > 90% | < 1% | 0.341 nM |
| CCCCCCCCCCCCC(=O)N[C@@H](CCC(=O)NCCOCCOCC(=O)NCCOCCOCC(=O)N[C@@H](CCC(N)=O)C(=O)N[C@@H](CCCCNC(=N)N)C(=O)N1CCC[C@H]1C(=O)N(C)[C@@H](CCCNC(=N)N)C(=O)N[C@@](C)(CC(C)C)C(=O)N[C@@H](CO)C(=O)N[C@@H](Cc1c[nH]cn1)C(=O)N[C@@H](CCCCN)C(=O)NCC(=O)N1[C@H](C(=O)N[C@@H](CCCC)C(=O)N2CCC[C@H]2C(=O)N[C@@H](Cc2ccc(Cl)cc2)C(=O)O)C[C@@H]2CCCC[C@@H]21)C(=O)O [compound 359] ({Tridecanoyl-γGlu-AEEA-AEEA}-Q[hArg]P[NMeR][αMeL]SHKG[Oic][Nle]P[Phe(4-Cl)]-OH) | 2% | 0.116 nM | 62% | 3% |  |

Next, values leading:

| remaining at 4 h, 5 μM [1] | EC50 (rat APJ receptor; [4]) | remaining at 4 h, 5 μM [2] | remaining at 4 h, 5 μM [3] | EC50 (rat APJ receptor; [5]) | Compound |
| --- | --- | --- | --- | --- | --- |
| < 1% | 3.14 nM | > 90% | 13% |  | CCCCCCCCCCCCC(=O)N[C@@H](CCC(=O)NCCOCCOCC(=O)NCCOCCOCC(=O)N[C@H](CCC(N)=O)C(=O)N[C@@H](CCCNC(=N)N)C(=O)N1CCC[C@H]1C(=O)N(C)[C@@H](CCCNC(=N)N)C(=O)N[C@@H](CC1CCCCC1)C(=O)N[C@@H](CO)CC(=O)N[C@@H](Cc1c[nH]cn1)C(=O)N[C@@H](CCCCN)C(=O)NCC(=O)N1[C@H](C(=O)N[C@@H](CCCC)C(=O)NC(C)(C)C(=O)N[C@@H](Cc2ccc(Cl)cc2)C(=O)O)C[C@@H]2CCCC[C@@H]21)C(=O)O [compound 500] ({Tridecanoyl-γGlu-AEEA-AEEA}-[dQ]RP[NMeR][Cha][β3hS]HKG[Oic][Nle][Aib][Phe(4-Cl)]-OH) |
| 2% |  | 86% | 8% | 1.5 nM | CCCCCCCCCCCCC(=O)N[C@@H](CCC(=O)NCCOCCOCC(=O)NCCOCCOCC(=O)NC(CC(=O)N[C@@H](CCCNC(=N)N)C(=O)N1CCC[C@H]1C(=O)N(C)[C@@H](CCCNC(=N)N)C(=O)NC(CC(=O)N[C@@H](CO)C(=O)N[C@@H](Cc1c[nH]cn1)C(=O)N[C@@H](CCCCN)C(=O)NCC(=O)N1[C@H](C(=O)N[C@@H](CCCC)C(=O)N2CCC[C@H]2C(=O)N[C@@H](Cc2ccc(Cl)cc2)C(=O)O)C[C@@H]2CCCC[C@@H]21)C(C)C)C(C)C)C(=O)O (stereo partly drawn) [compound 394] ({Tridecanoyl-γGlu-AEEA-AEEA}-[ξβ3hV]RP[NMeR][ξβ3hV]SHKG[Oic][Nle]P[Phe(4-Cl)]-OH) |
| 3% | 0.351 nM | 6% | 1% |  | CCCCCCCCCCCCC(=O)N[C@@H](CCC(=O)NCCOCCOCC(=O)NCCOCCOCC(=O)N[C@@H](CCC(N)=O)C(=O)N[C@@H](CCCNC(=N)N)C(=O)N1CCC[C@H]1C(=O)N(C)[C@@H](CCCNC(=N)N)C(=O)N[C@@H](CC(C)C)C(=O)N[C@@H](CO)C(=O)N[C@@H](Cc1c[nH]cn1)C(=O)N[C@@H](CCCCN)C(=O)NCC(=O)N1CCC[C@H]1C(=O)N[C@@H](CCCC)C(=O)N1CCC[C@@]1(C)C(=O)N[C@@H](Cc1ccc(Cl)cc1)C(=O)O)C(=O)O [compound 401] |
| 6% |  | 62% | 77% | 52.2 nM | CCCCCCCCCCCCCCCC(=O)N[C@@H](CCC(=O)NCCOCCOCC(=O)NCCOCCOCC(=O)N[C@H](CCC(N)=O)C(=O)N[C@@H](CCCNC(=N)N)C(=O)N1CCC[C@H]1C(=O)N(C)[C@@H](CCCNC(=N)N)C(=O)N[C@@H](CC1CCCCC1)C(=O)N[C@@H](CO)C(=O)N[C@@H](Cc1c[nH]cn1)C(=O)N[C@@H](CCCCN)C(=O)NCC(=O)N1[C@H](C(=O)N[C@@H](CCCC)C(=O)NC2(C(=O)N[C@@H](Cc3ccc(Cl)cc3)C(=O)O)CCCCC2)C[C@@H]2CCCC[C@@H]21)C(=O)O [compound 584] ({Palmitoyl-γGlu-AEEA-AEEA}-[dQ]RP[NMeR][Cha]SHKG[Oic][Nle][Ac6c][Phe(4-Cl)]-OH) |
| 27% |  | 79% | 59% | 4.25 nM | CCCCCCCCCCCCCCCC(=O)N[C@@H](CCC(=O)NCCOCCOCC(=O)NCCOCCOCC(=O)N[C@H](CCC(N)=O)C(=O)N[C@@H](CCCNC(=N)N)C(=O)N1CCC[C@H]1C(=O)N(C)[C@@H](CCCNC(=N)N)C(=O)N[C@@H](CC1CCCCC1)C(=O)N[C@@H](CO)C(=O)N[C@@H](Cc1c[nH]cn1)C(=O)N[C@@H](CCCCN)C(=O)NCC(=O)N1[C@H](C(=O)N[C@@H](CCCC)C(=O)N[C@@H](CC(=O)O)Cc2ccccc2)C[C@@H]2CCCC[C@@H]21)C(=O)O [compound 573] ({Palmitoyl-γGlu-AEEA-AEEA}-[dQ]RP[NMeR][Cha]SHKG[Oic][Nle][d(β3hF)]-OH) |
